Measurements taken from PubChem BioAssay (NCI).
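Exposure lasted 48 hours, with cells grown in 96-well plates and compounds tested at five concentrations. Here, GI50 denotes the concentration required for 50% inhibition of growth. At the TGI there is no net growth.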

What was measured:
Assay in all cases: NCI-60 cell line screen, 48 h
786-0 renal = system: 786-0 renal
A498 renal = system: A498 renal
A549 NSCLC = system: A549 NSCLC
ACHN renal = system: ACHN renal
BT-549 breast = system: BT-549 breast
CAKI-1 renal = system: CAKI-1 renal
CCRF-CEM leukemia = system: CCRF-CEM leukemia
COLO 205 colon = system: COLO 205 colon
DU-145 prostate = system: DU-145 prostate
EKVX NSCLC = system: EKVX NSCLC
HCC-2998 colon = system: HCC-2998 colon
HCT-116 colon = system: HCT-116 colon
HCT-15 colon = system: HCT-15 colon
HL-60(TB) leukemia = system: HL-60(TB) leukemia
HOP-62 NSCLC = system: HOP-62 NSCLC
HOP-92 NSCLC = system: HOP-92 NSCLC
HS 578T breast = system: HS 578T breast
HT29 colon = system: HT29 colon
IGROV1 ovarian = system: IGROV1 ovarian
K-562 leukemia = system: K-562 leukemia
KM12 colon = system: KM12 colon
M14 melanoma = system: M14 melanoma
MALME-3M melanoma = system: MALME-3M melanoma
MCF7 breast = system: MCF7 breast
MDA-MB-231 breast = system: MDA-MB-231 breast
MDA-MB-435 = system: MDA-MB-435
MOLT-4 leukemia = system: MOLT-4 leukemia
NCI-H226 lung = system: NCI-H226 lung
NCI-H23 lung = system: NCI-H23 lung
NCI-H460 lung = system: NCI-H460 lung
NCI-H522 lung = system: NCI-H522 lung
NCI/ADR-RES ovarian = system: NCI/ADR-RES ovarian
OVCAR-3 ovarian = system: OVCAR-3 ovarian
OVCAR-4 ovarian = system: OVCAR-4 ovarian
OVCAR-5 ovarian = system: OVCAR-5 ovarian
OVCAR-8 ovarian = system: OVCAR-8 ovarian
PC-3 prostate = system: PC-3 prostate
RPMI-8226 leukemia = system: RPMI-8226 leukemia
RXF 393 renal = system: RXF 393 renal
SF-268 CNS = system: SF-268 CNS
SF-295 CNS = system: SF-295 CNS
SF-539 CNS = system: SF-539 CNS
SK-MEL-2 melanoma = system: SK-MEL-2 melanoma
SK-MEL-28 melanoma = system: SK-MEL-28 melanoma
SK-MEL-5 melanoma = system: SK-MEL-5 melanoma
SK-OV-3 ovarian = system: SK-OV-3 ovarian
SN12C renal = system: SN12C renal
SNB-19 CNS = system: SNB-19 CNS
SNB-75 CNS = system: SNB-75 CNS
SR leukemia = system: SR leukemia
SW-620 colon = system: SW-620 colon
T-47D breast = system: T-47D breast
TK-10 renal = system: TK-10 renal
U251 CNS = system: U251 CNS
UACC-257 melanoma = system: UACC-257 melanoma
UACC-62 melanoma = system: UACC-62 melanoma
UO-31 renal = system: UO-31 renal

**Q.** Which results are given for `CN1CCc2c(sc3ncnc(N/N=C/c4ccc(Cl)c(Cl)c4)c23)C1`?
**A.** GI50 (786-0 renal): 12.4 µM; TGI (786-0 renal): 32.1 µM; GI50 (A498 renal): 19.9 µM; TGI (A498 renal): 35.6 µM; GI50 (A549 NSCLC): 11 µM; TGI (A549 NSCLC): 32.1 µM; GI50 (ACHN renal): 15.1 µM; TGI (ACHN renal): 31.5 µM; GI50 (BT-549 breast): 14 µM; TGI (BT-549 breast): 33 µM; GI50 (CAKI-1 renal): 15.2 µM; TGI (CAKI-1 renal): 29.1 µM; GI50 (CCRF-CEM leukemia): 14 µM; TGI (CCRF-CEM leukemia): > 100 µM; GI50 (COLO 205 colon): 10.6 µM; TGI (COLO 205 colon): 27.5 µM; GI50 (DU-145 prostate): 14.5 µM; TGI (DU-145 prostate): 28.5 µM; GI50 (EKVX NSCLC): 19.1 µM; TGI (EKVX NSCLC): 39 µM; GI50 (HCC-2998 colon): 9.8 µM; TGI (HCC-2998 colon): 25.7 µM; GI50 (HCT-116 colon): 13.7 µM; TGI (HCT-116 colon): 44.4 µM; GI50 (HCT-15 colon): 6.61 µM; TGI (HCT-15 colon): 22.2 µM; GI50 (HL-60(TB) leukemia): 2.04 µM; TGI (HL-60(TB) leukemia): 4.83 µM; GI50 (HOP-62 NSCLC): 10.2 µM; TGI (HOP-62 NSCLC): 41.4 µM; GI50 (HOP-92 NSCLC): 7.63 µM; TGI (HOP-92 NSCLC): 34.3 µM; GI50 (HS 578T breast): 22.1 µM; TGI (HS 578T breast): 65.8 µM; GI50 (HT29 colon): 13.6 µM; TGI (HT29 colon): 29.3 µM; GI50 (IGROV1 ovarian): 15.6 µM; TGI (IGROV1 ovarian): 31.8 µM; GI50 (K-562 leukemia): 12.5 µM; TGI (K-562 leukemia): 57 µM; GI50 (KM12 colon): 17.9 µM; TGI (KM12 colon): 34 µM; GI50 (M14 melanoma): 17.6 µM; TGI (M14 melanoma): 43.8 µM; GI50 (MALME-3M melanoma): 14.1 µM; TGI (MALME-3M melanoma): 28.5 µM; GI50 (MCF7 breast): 3.94 µM; TGI (MCF7 breast): 18.6 µM; GI50 (MDA-MB-231 breast): 12.4 µM; TGI (MDA-MB-231 breast): 26.8 µM; GI50 (MDA-MB-435): 18.2 µM; TGI (MDA-MB-435): 34.4 µM; GI50 (MOLT-4 leukemia): 11.9 µM; TGI (MOLT-4 leukemia): 43.6 µM; GI50 (NCI-H226 lung): 77.9 µM; TGI (NCI-H226 lung): > 100 µM; GI50 (NCI-H23 lung): 13.5 µM; TGI (NCI-H23 lung): 31.2 µM; GI50 (NCI-H460 lung): 16.4 µM; TGI (NCI-H460 lung): 34.7 µM; GI50 (NCI-H522 lung): 11.7 µM; TGI (NCI-H522 lung): 28.3 µM; GI50 (NCI/ADR-RES ovarian): 14.3 µM; TGI (NCI/ADR-RES ovarian): 34.1 µM; GI50 (OVCAR-3 ovarian): 15.7 µM; TGI (OVCAR-3 ovarian): 30.1 µM; GI50 (OVCAR-4 ovarian): 15.5 µM; TGI (OVCAR-4 ovarian): 30.9 µM; GI50 (OVCAR-5 ovarian): 15.3 µM; TGI (OVCAR-5 ovarian): 30.9 µM; GI50 (OVCAR-8 ovarian): 14.1 µM; TGI (OVCAR-8 ovarian): 39.7 µM; GI50 (PC-3 prostate): 18.1 µM; TGI (PC-3 prostate): 43.9 µM; GI50 (RPMI-8226 leukemia): 17 µM; TGI (RPMI-8226 leukemia): 66.4 µM; GI50 (RXF 393 renal): 12.8 µM; TGI (RXF 393 renal): 28.1 µM; GI50 (SF-268 CNS): 16.5 µM; TGI (SF-268 CNS): 39.4 µM; GI50 (SF-295 CNS): 13 µM; TGI (SF-295 CNS): 27.9 µM; GI50 (SF-539 CNS): 13.8 µM; TGI (SF-539 CNS): 29.8 µM; GI50 (SK-MEL-2 melanoma): 38.4 µM; TGI (SK-MEL-2 melanoma): > 100 µM; GI50 (SK-MEL-28 melanoma): 13.7 µM; TGI (SK-MEL-28 melanoma): 29.8 µM; GI50 (SK-MEL-5 melanoma): 13.7 µM; TGI (SK-MEL-5 melanoma): 28.5 µM; GI50 (SK-OV-3 ovarian): 17.1 µM; TGI (SK-OV-3 ovarian): 34.8 µM; GI50 (SN12C renal): 11.5 µM; TGI (SN12C renal): 26.3 µM; GI50 (SNB-19 CNS): 15.4 µM; TGI (SNB-19 CNS): 35.6 µM; GI50 (SNB-75 CNS): 14.6 µM; TGI (SNB-75 CNS): 28.6 µM; GI50 (SR leukemia): 2.52 µM; TGI (SR leukemia): 8.04 µM; GI50 (SW-620 colon): 12.1 µM; TGI (SW-620 colon): 29.8 µM; GI50 (T-47D breast): 19.9 µM; TGI (T-47D breast): 49.9 µM; GI50 (TK-10 renal): 21.2 µM; TGI (TK-10 renal): 36.1 µM; GI50 (U251 CNS): 17.1 µM; TGI (U251 CNS): 35.8 µM; GI50 (UACC-257 melanoma): 14.8 µM; TGI (UACC-257 melanoma): 30.2 µM; GI50 (UACC-62 melanoma): 14.9 µM; TGI (UACC-62 melanoma): 29.6 µM; GI50 (UO-31 renal): 10.1 µM; TGI (UO-31 renal): 22.7 µM
